Results taken from PubChem BioAssay AID1963986 (Molecular Pharmacology Branch, DTP, NCI, 2024).

System: 171881-019-R-J1-PDC tumor spheroid viability
Assay: Anticancer human tumor 171881-019-R-J1-PDC patient-derived invasive breast carcinoma cell line growth inhibition [PI3K]
Settings: spheroids with HUVEC and MSC; for IC50: curve of first compound; for viability, T/C: stronger effect = lower value
Excerpt: Combinatorial screen of targeted agents with the PI3K inhibitors inavolisib, alpelisib, duvelisib, and copanlisib in multi-cell type tumor spheroids
A high-throughput screen of multi-cell type tumor spheroids was designed to identify active combinations of targeted small molecules and PI3K pathway inhibitors. Complex spheroids include a stromal component modeled by human endothelial cells (HUVEC) and fibroblasts modeled by human mesenchymal stem cells (MSCs). The concentration ranges selected for each drug and investigational agent were based upon clinically achievable concentrations if the clinical Cmax of the agent was known.
Compounds. The drugs and investigational agents: inavolisib (NSC800729), alpelisib (NSC765974), duvelisib (NSC772469), copanlisib (NSC816437), ipatasertib (NSC767898), afuresertib (NSC778305), talazoparib (NSC767125), sapanisertib (NSC764658), selumetinib (NSC741078), tovorafenib (DAY101, NSC766906), vemurafenib (NSC761431), ravoxertinib (NSC781343), sotorasib (NSC818433), MRTX1133 (NSC 836407), abemaciclib (NSC 768073), palbociclib (NSC758247), venetoclax (NSC 766270), SY5609 (NSC837396), enzalutamide (NSC755605), and darolutamide (NSC825331), were obtained from the National Cancer Institute (NCI) Developmental Therapeutics Program Chemical Repository. The FDA-approved anticancer drug set is available from the NCI Developmental Therapeutics Program. […] The stock solutions were prepared in dimethyl sulfoxide (DMSO, Sigma-Aldrich, St. Louis, MO, cat. D2650) at 800-fold the tested concentration and stored at -70 degrees C prior to their use. All drugs and investigational agents were tested over a range starting from a high concentration at or near the clinical Cmax and decreasing in half-log increments. If the clinical Cmax for an agent had not been determined, the highest concentration tested was 10 microM.
Cell Culture. All cells were maintained in an incubator at 37 degrees C and 5% CO2 with 95% humidity. The PDC lines were cultured according to standard operating procedures established by the NCI PDMR (https://pdmr.cancer.gov/sops/default.htm). All PDCs were thawed and cultured in Matrigel-coated flasks prepared with a working solution of 1X Ham's F-12 nutrient mix, without supplementation (Invitrogen, Waltham, MA, cat. 11765054), 100 U/mL penicillin-streptomycin (Invitrogen, cat. 15140122), and 2.5% Matrigel (Corning Inc., Corning, NY, cat. 354248) for the first three passages. The 354836-022-R-J1-PDC, 475296-252-R-J1-PDC, and 997726-040-R-J2-PDC lines were cultured in 6A media, which includes advanced DMEM/F-12 (Thermo Fisher Scientific, cat. 12634028), 10 mM HEPES (Thermo Fisher Scientific, cat. 15630080), 1X GlutaMAX supplement (Thermo Fisher Scientific, cat. 35050061), 0.1 mg/mL primocin (InvivoGen, San Diego, CA, cat. ant-pm-2), 10% defined fetal bovine serum, heat inactivated (HyClone Laboratories Inc., Logan, UT, cat. SH30070.03HI), 50% L-WRN conditioned media (ATCC, cat. CRL-3276), 1.25 mM N-Acetyl-L-cysteine (Sigma-Aldrich, cat. A9165), 10 mM nicotinamide (Sigma-Aldrich, cat. N0636), 1X B-27 supplement (Thermo Fisher Scientific, cat. 17504044), 1X N-2 supplement (Thermo Fisher Scientific, cat. 17502048), and 10 microM Y-27632 dihydrochloride (Tocris Bioscience, Bristol, United Kingdom, cat. 1254). The 624824-186-R-J2-PDC line was cultured in 6C/Colon 1B media, which includes all 6A media components plus 50 ng/mL human EGF recombinant protein (Thermo Fisher Scientific, cat. PHG0311). […]

[1] = second compound 0.00316 µM, first compound 0.0316 µM
[2] = second compound 0.00316 µM, first compound 0.1 µM
[3] = second compound 0.01 µM, first compound 0.0316 µM
[4] = second compound 0.01 µM, first compound 0.1 µM
[5] = second compound 0.0316 µM, first compound 0.0316 µM
[6] = second compound 0.0316 µM, first compound 0.1 µM
[7] = second compound 0.1 µM, first compound 0.0316 µM
[8] = second compound 0.1 µM, first compound 0.1 µM
[9] = second compound 0.316 µM, first compound 0.0316 µM
[10] = second compound 0.316 µM, first compound 0.1 µM
[11] = second compound 1 µM, first compound 0.0316 µM
[12] = second compound 1 µM, first compound 0.1 µM
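Also: spheroids exposed to compound for 7 days before viability read.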
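For viability, T/C in this document: 100% = DMSO vehicle-treated spheroids.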

Q: With CC(C)n1nc(-c2ccc3oc(N)nc3c2)c2c(N)ncnc21 + CC(Nc1ccc2c(c1)OCCn1cc(N3C(=O)OCC3C(F)F)nc1-2)C(N)=O as the compound, how does the IC50 (second compound 0.00316 µM) read?
A: 9.16 nM

Q: And the IC50 (second compound 0.01 µM)?
A: 4.01 nM

Q: What about the IC50 (second compound 0.0316 µM) of the same compound?
A: 1.36 nM

Q: What about the IC50 (second compound 0.1 µM) of the same compound?
A: < 0.316 nM

Q: What about the IC50 (second compound 0.316 µM) of the same compound?
A: < 0.316 nM

Q: What about the IC50 (second compound 1 µM) of the same compound?
A: < 0.316 nM

Q: What about the viability, T/C (second compound 0.00316 µM, first compound 0.000316 µM) of the same compound?
A: 80.2%

Q: And the viability, T/C (second compound 0.00316 µM, first compound 0.001 µM)?
A: 76.2%

Q: What about the viability, T/C (second compound 0.00316 µM, first compound 0.00316 µM) of the same compound?
A: 69.5%

Q: And the viability, T/C (second compound 0.00316 µM, first compound 0.01 µM)?
A: 49.4%

Q: What about the viability, T/C [1] of the same compound?
A: 17.4%

Q: And the viability, T/C [2]?
A: 4.49%

Q: What about the viability, T/C (second compound 0.01 µM, first compound 0.000316 µM) of the same compound?
A: 71.7%

Q: What about the viability, T/C (second compound 0.01 µM, first compound 0.001 µM) of the same compound?
A: 69.9%

Q: What about the viability, T/C (second compound 0.01 µM, first compound 0.00316 µM) of the same compound?
A: 49.7%

Q: What about the viability, T/C (second compound 0.01 µM, first compound 0.01 µM) of the same compound?
A: 38.5%

Q: What about the viability, T/C [3] of the same compound?
A: 12.6%

Q: What about the viability, T/C [4] of the same compound?
A: 4.27%

Q: What about the viability, T/C (second compound 0.0316 µM, first compound 0.000316 µM) of the same compound?
A: 58.5%

Q: And the viability, T/C (second compound 0.0316 µM, first compound 0.001 µM)?
A: 50.9%

Q: What about the viability, T/C (second compound 0.0316 µM, first compound 0.00316 µM) of the same compound?
A: 42.9%

Q: And the viability, T/C (second compound 0.0316 µM, first compound 0.01 µM)?
A: 25.3%

Q: What about the viability, T/C [5] of the same compound?
A: 8.97%

Q: What about the viability, T/C [6] of the same compound?
A: 3.7%

Q: What about the viability, T/C (second compound 0.1 µM, first compound 0.000316 µM) of the same compound?
A: 43.2%

Q: And the viability, T/C (second compound 0.1 µM, first compound 0.001 µM)?
A: 38.6%

Q: And the viability, T/C (second compound 0.1 µM, first compound 0.00316 µM)?
A: 28.8%

Q: And the viability, T/C (second compound 0.1 µM, first compound 0.01 µM)?
A: 13.3%

Q: What about the viability, T/C [7] of the same compound?
A: 6.55%

Q: And the viability, T/C [8]?
A: 3.2%

Q: What about the viability, T/C (second compound 0.316 µM, first compound 0.000316 µM) of the same compound?
A: 26.6%

Q: What about the viability, T/C (second compound 0.316 µM, first compound 0.001 µM) of the same compound?
A: 25.2%

Q: And the viability, T/C (second compound 0.316 µM, first compound 0.00316 µM)?
A: 17.7%

Q: What about the viability, T/C (second compound 0.316 µM, first compound 0.01 µM) of the same compound?
A: 8.83%

Q: And the viability, T/C [9]?
A: 4.95%

Q: And the viability, T/C [10]?
A: 2.96%

Q: And the viability, T/C (second compound 1 µM, first compound 0.000316 µM)?
A: 18.8%

Q: What about the viability, T/C (second compound 1 µM, first compound 0.001 µM) of the same compound?
A: 19.5%

Q: And the viability, T/C (second compound 1 µM, first compound 0.00316 µM)?
A: 12.8%

Q: What about the viability, T/C (second compound 1 µM, first compound 0.01 µM) of the same compound?
A: 6.3%

Q: What about the viability, T/C [11] of the same compound?
A: 4.24%

Q: And the viability, T/C [12]?
A: 2.61%

Q: With CCCS(=O)(=O)Nc1ccc(F)c(C(=O)c2c[nH]c3ncc(-c4ccc(Cl)cc4)cc23)c1F + CC(Nc1ccc2c(c1)OCCn1cc(N3C(=O)OCC3C(F)F)nc1-2)C(N)=O as the compound, how does the IC50 (second compound 0.00316 µM) read?
A: 5810 nM

Q: What about the IC50 (second compound 0.01 µM) of the same compound?
A: 5750 nM

Q: And the IC50 (second compound 0.0316 µM)?
A: 4850 nM

Q: What about the IC50 (second compound 0.1 µM) of the same compound?
A: 3480 nM

Q: What about the IC50 (second compound 0.316 µM) of the same compound?
A: < 31.6 nM

Q: What about the IC50 (second compound 1 µM) of the same compound?
A: < 31.6 nM

Q: And the viability, T/C [1]?
A: 92.3%

Q: And the viability, T/C [2]?
A: 109%

Q: And the viability, T/C (second compound 0.00316 µM, first compound 0.316 µM)?
A: 92.9%

Q: What about the viability, T/C (second compound 0.00316 µM, first compound 1 µM) of the same compound?
A: 109%

Q: And the viability, T/C (second compound 0.00316 µM, first compound 3.16 µM)?
A: 94.6%

Q: And the viability, T/C (second compound 0.00316 µM, first compound 10 µM)?
A: 10%

Q: What about the viability, T/C [3] of the same compound?
A: 78.4%

Q: What about the viability, T/C [4] of the same compound?
A: 87.2%

Q: And the viability, T/C (second compound 0.01 µM, first compound 0.316 µM)?
A: 101%

Q: What about the viability, T/C (second compound 0.01 µM, first compound 1 µM) of the same compound?
A: 102%

Q: What about the viability, T/C (second compound 0.01 µM, first compound 3.16 µM) of the same compound?
A: 92.6%

Q: What about the viability, T/C (second compound 0.01 µM, first compound 10 µM) of the same compound?
A: 11.1%

Q: What about the viability, T/C [5] of the same compound?
A: 63.3%

Q: And the viability, T/C [6]?
A: 64.9%

Q: What about the viability, T/C (second compound 0.0316 µM, first compound 0.316 µM) of the same compound?
A: 81.9%

Q: And the viability, T/C (second compound 0.0316 µM, first compound 1 µM)?
A: 83.3%

Q: And the viability, T/C (second compound 0.0316 µM, first compound 3.16 µM)?
A: 83%

Q: What about the viability, T/C (second compound 0.0316 µM, first compound 10 µM) of the same compound?
A: 7.38%

Q: And the viability, T/C [7]?
A: 46.7%

Q: And the viability, T/C [8]?
A: 51.4%

Q: What about the viability, T/C (second compound 0.1 µM, first compound 0.316 µM) of the same compound?
A: 53.9%

Q: And the viability, T/C (second compound 0.1 µM, first compound 1 µM)?
A: 57%

Q: What about the viability, T/C (second compound 0.1 µM, first compound 3.16 µM) of the same compound?
A: 61.7%

Q: And the viability, T/C (second compound 0.1 µM, first compound 10 µM)?
A: 5.11%

Q: What about the viability, T/C [9] of the same compound?
A: 32.5%

Q: What about the viability, T/C [10] of the same compound?
A: 32.4%

Q: And the viability, T/C (second compound 0.316 µM, first compound 0.316 µM)?
A: 42%

Q: And the viability, T/C (second compound 0.316 µM, first compound 1 µM)?
A: 44.7%

Q: What about the viability, T/C (second compound 0.316 µM, first compound 3.16 µM) of the same compound?
A: 42.3%

Q: And the viability, T/C (second compound 0.316 µM, first compound 10 µM)?
A: 5%

Q: And the viability, T/C [11]?
A: 21%

Q: What about the viability, T/C [12] of the same compound?
A: 28.4%

Q: What about the viability, T/C (second compound 1 µM, first compound 0.316 µM) of the same compound?
A: 28.4%

Q: And the viability, T/C (second compound 1 µM, first compound 1 µM)?
A: 33.5%

Q: And the viability, T/C (second compound 1 µM, first compound 3.16 µM)?
A: 35.6%

Q: And the viability, T/C (second compound 1 µM, first compound 10 µM)?
A: 3.55%
